{"source": "patent US20250113825A1", "about": "(priority 2022, published 2025)", "key": {"[1]": {"system": "Pyricularia oryzae causing neck blast", "test": "whole plant or invertebrate", "type": "in vivo", "conditions": "for Observed efficacy of stobilurin fungicide (%): Table 5(a), Picoxystrobin 67.8 g a.i./ha, Trifloxystrobin 100 g a.i./ha alone"}, "rice neck blast fungi": {"system": "rice neck blast fungi", "type": "in vivo, Pyricularia oryzae", "conditions": "Prothioconazole 120 gai/ha alone or with Azoxystrobin 280, Picoxystrobin 67, Trifloxystrobin 100 gai/ha"}}, "data": [{"smiles": "CC(C)OC(=O)C(C(=O)OC(C)C)=C1SCCS1", "note": "[Isoprothiolane]", "values": [{"measurement": "Observed efficacy of isoprothiolane (%)", "setting": "[1]; Table 5(b), Isoprothiolane 250 g a.i./ha alone", "value": 48, "unit": "%"}]}, {"smiles": "CO/C=C(/C(=O)OC)c1ccccc1COc1cccc(C(F)(F)F)n1", "note": "[Picoxystrobin]", "values": [{"measurement": "Observed efficacy of stobilurin fungicide (%)", "setting": "[1]", "value": 42, "unit": "%"}]}, {"smiles": "CON=C(C(=O)OC)c1ccccc1CON=C(C)c1cccc(C(F)(F)F)c1", "note": "[Trifloxystrobin]", "values": [{"measurement": "Observed efficacy of stobilurin fungicide (%)", "setting": "[1]", "value": 60, "unit": "%"}]}, {"smiles": "OC(Cc1ccccc1Cl)(Cn1nc[nH]c1=S)C1(Cl)CC1", "note": "(centres unmarked) [Prothioconazole, 2-[2-(1-chlorocyclopropyl)-3-(2-chlorophen-yl)-2-hydroxypropyl]-2,4-dihydro-[1,2,4-]-triazole-3-thione]", "values": [{"measurement": "% Control (rice neck blast)", "setting": "rice neck blast fungi", "value": 41.49, "unit": "%"}, {"measurement": "inhibition at 120 g/ha", "setting": "[1]; Pyricularia oryzae, read-out: Observed efficacy of demethylation inhibitor fungicide (%)", "value": 49, "unit": "%"}]}]}
